The values that follow are results of earlier work, collected in article PMC7309225, “Synthesis, Biodistribution, and Radiation Dosimetry of a Novel mGluR5 Radioligand: ^18F-AZD9272” (ACS Chemical Neuroscience, 2020).

Series [1] relates to monoamine oxidase-B (MAO-B). More on the design: method as in PMID 23541825. As to conditions: human brain stem, thalamus, amygdala, cerebellum, and ventral striatum; cited from earlier work.
Another series relates to mGluR5. More on the design: method as in PMID 29608920. The settings on record: 2TC, cited from earlier work.

Read-outs that look alike come from different tables or passages of the source.

On to `N#Cc1cc(F)cc(-c2nc(-c3ccc(F)cn3)no2)c1` [^11C-AZD9272], for which, in series [1], the “MAO-B component of binding” value is 90–95%. Further, the VT in the series on mGluR5 (occipital cortex) is 6.5 mL/cm^3; in the series on mGluR5 (ventral striatum), 18.0 mL/cm^3.
